According to patent US20210278408A1, “METHODS OF TREATMENT OF CANCER WITH SUBSTITUTED PYRROLE AND PYRAZOLE COMPOUNDS AND DIAGNOSIS OF CANCERS SUSCEPTIBLE TO TREATMENT WITH SUBSTITUTED PYRROLE AND PYRAZOLE COMPOUNDS” (Bantam Pharmaceutical, LLC, priority 2018, published 2021):
Read-outs that look alike come from different tables or passages of the source.

Test system: 407 cancer cell lines
Test: Cell viability of cancer cell lines (IC50), CellTiter-Glo Viability Assay, 96 h
Type: cell-based
Settings: Homo sapiens, read-out: Absolute IC50
Protocol: Viability was determined by using the 50% inhibitory concentration (IC50) as determined with the CellTiter-Glo® Viability Assay (Promega).
Experiments were initiated by first thawing and equilibrating the CellTiter-Glo® Buffer to room temperature. The lyophilized CellTiter-Glo® Substrate was also equilibrated to room temperature. The lyophilized substrate was reconstituted with the CellTiter-Glo® buffer to form the CellTiter-Glo® Reagent.
Cells were harvested during the logarithmic growth period, counted, and the cell concentration adjusted to 4.44×10^4 cells/mL using culture medium.
Cells were allowed to grow overnight and the following day, the TO reading was obtained by adding 10 μL culture medium to each well of Plate A. The plate was allowed to equilibrate at room temperature for thirty minutes, after which 50 μL CellTiter-Glo® reagent was added to each well. The contents were mixed for 5 min on an orbital shaker to induce cell lysis. Plates were incubated for 20 minutes to stabilize the luminescent signal and the TO luminescence recorded.
Test plate B was incubated for 96 h in the humidified incubator at 37° C. with 5% CO2.
Following the incubation, the plate was equilibrated at room temperature for thirty minutes. CellTiter-Glo® (50 μL) was added to each well of the plate and contents mixed for five minutes on an orbital shaker to induce cell lysis. The luminescent signal was allowed to stabilize at room temperature for 20 minutes and the luminescence recorded.
IC50 (EC50) was calculated using a dose-response curve, fitted using a nonlinear regression model with a sigmoidal dose response. Survival rate was calculated using the formula:
The Surviving rate (%)=(LumTest article−LumMedium control)/(LumNon-treated−LumMedium control)×100%.
Absolute IC50 (EC50) was calculated according to the dose-response curve generated by the statistical software (GraphPad Prism 5.0).

Cc1nn(-c2nc(-c3ccc(C(F)(F)F)cc3)c(SC(C)C)s2)c(C(=O)O)c1-c1cccc(F)c1 [Compound A197, 4-(3-fluorophenyl)-1-(5-(isopropylthio)-4-(4-(trifluoromethyl)phenyl)thiazol-2-yl)-3-methyl-1H-pyrazole-5-carboxylic acid]
IC50 (NCI-H292, 96 h, NCI-H292 cells, 96 h): > 30000 nM
IC50 (NCI-H358, 96 h, NCI-H358 cells, 96 h): 380 nM
IC50 (NCI-H441, 96 h, NCI-H441 cells, 96 h): > 30000 nM
IC50 (NCI-H446, 96 h, NCI-H446 cells, 96 h): > 30000 nM
IC50 (NCI-H460, 96 h, NCI-H460 cells, 96 h): > 30000 nM
IC50 (NCI-H508, 96 h, NCI-H508 cells, 96 h): 1330 nM
IC50 (NCI-H520, 96 h, NCI-H520 cells, 96 h): 300 nM
IC50 (NCI-H522, 96 h, NCI-H522 cells, 96 h): > 30000 nM
IC50 (NCI-H526, 96 h, NCI-H526 cells, 96 h): > 30000 nM
IC50 (NCI-H596, NCI-H596): > 30000 nM
IC50 (NCI-H661, 96 h, NCI-H661 cells, 96 h): > 30000 nM
IC50 (NCI-H716, 96 h, NCI-H716 cells, 96 h): 1570 nM
IC50 (NCI-H727, 96 h, NCI-H727 cells, 96 h): > 30000 nM
IC50 (NCI-H747, 96 h, NCI-H747 cells, 96 h): > 30000 nM
IC50 (NCI-H929, NCI-H929): 19000 nM
IC50 (NCI-H1048, 96 h, NCI-H1048 cells, 96 h): > 30000 nM
IC50 (NCI-H1155, 96 h, NCI-H1155 cells, 96 h): 460 nM
IC50 (NCI-H1299, 96 h, NCI-H1299 cells, 96 h): 780 nM
IC50 (NCI-H1373, NCI-H1373): 800 nM
IC50 (NCI-H1395, NCI-H1395): 370 nM
IC50 (NCI-H1437, 96 h, NCI-H1437 cells, 96 h): 310 nM
IC50 (NCI-H1563, NCI-H1563): > 30000 nM
IC50 (NCI-H1573, 96 h, NCI-H1573 cells, 96 h): 460 nM
IC50 (NCI-H1581, 96 h, NCI-H1581 cells, 96 h): > 30000 nM
IC50 (NCI-H1648, 96 h, NCI-H1648 cells, 96 h): > 30000 nM
IC50 (NCI-H1650, NCI-H1650): > 30000 nM
IC50 (NCI-H1651, 96 h, NCI-H1651 cells, 96 h): 860 nM
IC50 (NCI-H1666, 96 h, NCI-H1666 cells, 96 h): > 30000 nM
IC50 (NCI-H1703, 96 h, NCI-H1703 cells, 96 h): 360 nM
IC50 (NCI-H1792, 96 h, NCI-H1792 cells, 96 h): 1270 nM
IC50 (NCI-H1838, 96 h, NCI-H1838 cells, 96 h): > 30000 nM
IC50 (NCI-H1975, 96 h, NCI-H1975 cells, 96 h): > 30000 nM
IC50 (NCI-H1993, 96 h, NCI-H1993 cells, 96 h): 1200 nM
IC50 (NCI-H2009, NCI-H2009): 4840 nM
IC50 (NCI-H2052, NCI-H2052): > 30000 nM
IC50 (NCI-H2087, 96 h, NCI-H2087 cells, 96 h): > 30000 nM
IC50 (NCI-H2122, 96 h, NCI-H2122 cells, 96 h): 270 nM
IC50 (NCI-H2170, 96 h, NCI-H2170 cells, 96 h): 500 nM
IC50 (NCI-H2228, 96 h, NCI-H2228 cells, 96 h): 610 nM
IC50 (NCI-H2452, NCI-H2452): > 30000 nM
IC50 (NCI-H3122, 96 h, NCI-H3122 cells, 96 h): 390 nM
IC50 (NCI-N87, 96 h): 1470 nM
IC50 (NUGC-3, 96 h, NUGC-3 cells, 96 h): 22900 nM
IC50 (NUGC-4, 96 h, NUGC-4 cells, 96 h): 1530 nM
IC50 (OCI-AML-3, OCI-AML3): > 30000 nM
IC50 (OCI-LY19, OCI-LY-19): 950 nM
IC50 (OCI-Ly7, 96 h, OCI-LY7 cells, 96 h): 680 nM
IC50 (OE19, 96 h): > 30000 nM
IC50 (OPM-2, OPM2): 370 nM
IC50 (OS-RC-2, OS-RC-2): > 30000 nM
IC50 (OVCAR-3, 96 h, OVCAR-3 cells, 96 h): > 30000 nM
IC50 (OVCAR-8, 96 h, OVCAR-8 cells, 96 h): 1020 nM
IC50 (PANC-1, PANC-1): 2700 nM
IC50 (PC-3, PC-3): > 30000 nM
IC50 (PC-9, 96 h, PC-9 cells, 96 h): 1110 nM
IC50 (PLC-PRF-5, PLC/PRF/5): 1240 nM
IC50 (Pfeiffer, 96 h, Pfeiffer cells, 96 h): 180 nM
IC50 (REH): 310 nM
IC50 (RKO): 23600 nM
IC50 (RL95-2, 96 h, RL95-2 cells, 96 h): 420 nM
IC50 (RPMI-2650, 96 h, RPMI-2650 cells, 96 h): 810 nM
IC50 (RPMI-8226, 96 h, RPMI 8226 cells, 96 h): 750 nM
IC50 (RS4-11, RS4;11): 690 nM
IC50 (RT112/84, RT112/84): 12500 nM
IC50 (RT-4, 96 h, RT4 cells, 96 h): 830 nM
IC50 (Raji, 96 h, Raji cells, 96 h): 450 nM
IC50 (Ramos, 96 h, Ramos cells, 96 h): 760 nM
IC50 (SAOS-2, Saos-2): 820 nM
IC50 (SCC-4, 96 h): > 30000 nM
IC50 (SCC-9, 96 h, SCC-9 cells, 96 h): > 30000 nM
IC50 (SCC-15, 96 h, SCC-15 cells, 96 h): > 30000 nM
IC50 (SCC-25, 96 h, SCC-25 cells, 96 h): > 30000 nM
IC50 (SF-126, 96 h, SF-126 cells, 96 h): > 30000 nM
IC50 (SF-268, 96 h, SF268 cells, 96 h): > 30000 nM
IC50 (SH-SY5Y): > 30000 nM
IC50 (SJSA-1, SJSA-1): > 30000 nM
IC50 (SK-BR-3, SK-BR-3): 29600 nM
IC50 (SK-CO-1, 96 h, SK-CO-1 cells, 96 h): 1120 nM
IC50 (SK-HEP1, 96 h, SK-HEP-1 cells, 96 h): > 30000 nM
IC50 (SK-LU-1, 96 h, SK-LU-1 cells, 96 h): 1050 nM
IC50 (SK-MEL-5, 96 h): > 30000 nM
IC50 (SK-MEL-28, 96 h): > 30000 nM
IC50 (SK-MES-1, SK-MES-1): 1210 nM
IC50 (SK-N-FI, 96 h, SK-N-FI cells, 96 h): 1190 nM
IC50 (SK-N-SH): > 30000 nM
IC50 (SK-NEP-1, 96 h, SK-NEP-1 cells, 96 h): 1060 nM
IC50 (SK-OV-3, 96 h, SK-OV-3 cells, 96 h): > 30000 nM
IC50 (SK-UT-1, 96 h, SK-UT-1 cells, 96 h): > 30000 nM
IC50 (SNU1, 96 h, SNU-1 cells, 96 h): 10700 nM
IC50 (SNU-5, 96 h): 1830 nM
IC50 (SNU-354, SNU-354): > 30000 nM
IC50 (SNU-387, SNU-387): > 30000 nM
IC50 (SNU-398, SNU-398): 220 nM
IC50 (SNU-423, 96 h, SNU-423 cells, 96 h): > 30000 nM
IC50 (SNU-449, SNU-449): 24300 nM
IC50 (SNU-475, 96 h, SNU-475 cells, 96 h): 2510 nM
IC50 (SNU-638, 96 h, SNU-638 cells, 96 h): > 30000 nM
IC50 (ST486, 96 h, ST486 cells, 96 h): 220 nM
IC50 (SU-DHL-1, SU-DHL-1): 330 nM
IC50 (SU-DHL-4, SU-DHL-4): 1070 nM
IC50 (SU-DHL-5, 96 h, SU-DHL-5 cells, 96 h): 420 nM
IC50 (SU-DHL-6, 96 h, SU-DHL-6 cells, 96 h): 1050 nM
IC50 (SU-DHL-8, SU-DHL-8): 750 nM
IC50 (SUM-159-PT, SUM159PT): 17800 nM
IC50 (SUP-B15, SUP-B15): 1220 nM
IC50 (SW13, SW-13): 350 nM
IC50 (SW48, 96 h, SW48 cells, 96 h): > 30000 nM
IC50 (SW480, SW480): > 30000 nM
IC50 (SW626, 96 h, SW626 cells, 96 h): > 30000 nM
IC50 (SW684, 96 h, SW684 cells, 96 h): > 30000 nM
IC50 (SW756, 96 h, SW756 cells, 96 h): 28400 nM
IC50 (SW780, 96 h, SW780 cells, 96 h): 22600 nM
IC50 (SW837, 96 h, SW837 cells, 96 h): > 30000 nM
IC50 (SW948, 96 h, SW948 cells, 96 h): > 30000 nM
IC50 (SW982, 96 h, SW982 cells, 96 h): > 30000 nM
IC50 (SW 1116, 96 h, SW1116 cells, 96 h): > 30000 nM
IC50 (SW1417, 96 h, SW1417 cells, 96 h): > 30000 nM
IC50 (SW1990, SW1990): 18100 nM
IC50 (SiHa, 96 h, SiHa cells, 96 h): > 30000 nM
IC50 (T47D): > 30000 nM
IC50 (T84, T84): > 30000 nM
IC50 (T-24, 96 h, T24 cells, 96 h): > 30000 nM
IC50 (TE-1, TE-1): 9770 nM
IC50 (TF-1, TF-1): > 30000 nM
IC50 (THP-1, 96 h, THP-1 cells, 96 h): 210 nM
